{"source": "patent US20100160454A1", "about": "“ANTIMICROBIAL AGENTS, COMPOSITIONS AND PRODUCTS CONTAINING THE SAME, AND METHODS OF USING THE COMPOSITIONS AND PRODUCTS” (Eastman Chemical Company, priority 2008, published 2010)", "assay_in_all_cases": "Microbiological challenge testing in BPW broth, graded subculture counts", "type_in_all_cases": "cell-based", "key": {"[1]": {"system": "Aspergillus niger Wild type", "conditions": "A. niger", "in_short": "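Wild-type A. niger, grown in TSB with 1% dextrose at 22 °C and on SABD until sporulation, was adjusted to 1.0×10^8 spores/vegetative cells (hemocytometer). It was inoculated in triplicate into BPW with 1% dextrose to give 10^5 to 10^6 CFU/mL at time zero. Counts were by spread plate on SABD, ≥48 h at 22 °C, CFU/mL = count × dilution factor.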"}, "[2]": {"system": "Candida albicans Wild type", "conditions": "C. albicans", "in_short": "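Wild-type C. albicans grown in TSB with 1% dextrose at 22 °C, then adjusted by turbidity and hemocytometer to a 10^8 CFU/mL challenge confirmed on SABD plates. Challenge added to BPW broth containing 1% dextrose, giving 10^5 to 10^6 CFU/mL at time zero; controls in triplicate. Counts by serial dilution and spread-plating after at least 48 h incubation.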"}, "[3]": {"system": "Pseudomonas aeruginosa Wild type", "conditions": "P. aeruginosa", "in_short": "(§1)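 Challenge substrates of BPW plus 1% dextrose containing the test material (w/v) or broth alone were inoculated to 10^5–10^6 CFU/mL. Bacteria had been precultured in dextrose TSB at 35 °C for at least 96 h. CFU/mL came from plate count × dilution factor on PCA after ≥48 h at 35 °C.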"}, "[4]": {"system": "Streptococcus mutans ATCC 35668", "in_short": "as §1"}, "[5]": {"system": "Bacillus subtilis Wild type", "in_short": "as §1"}}}
{"smiles": "O=C([O-])CN(CCN(CC(=O)[O-])CC(=O)O)CC(=O)O.[Na+].[Na+]", "note": "[EDTA, Na2EDTA]", "values": [{"measurement": "Grade", "setting": "[1]; 0.5% (wt/vol), 3 day", "value": 4}, {"measurement": "Grade", "setting": "[1]; 0.5% (wt/vol), 13 day", "value": 4}, {"measurement": "Grade", "setting": "[1]; 0.5% (wt/vol), 30 day", "value": 4}, {"measurement": "Grade", "setting": "[1]; 1.25% (wt/vol), 3 day", "value": "2 (Countable (10 to 100 colonies))"}, {"measurement": "Grade", "setting": "[1]; 1.25% (wt/vol), 13 day", "value": "1 (Countable (1 to 10 colonies))"}, {"measurement": "Grade", "setting": "[1]; 1.25% (wt/vol), 30 day", "value": 3}, {"measurement": "Grade", "setting": "[1]; 2.5% (wt/vol), 3 day", "value": 0}, {"measurement": "Grade", "setting": "[1]; 2.5% (wt/vol), 13 day", "value": 0}, {"measurement": "Grade", "setting": "[1]; 2.5% (wt/vol), 30 day", "value": 0}, {"measurement": "Grade", "setting": "[1]; 5.0% (wt/vol), 3 day", "value": 0}, {"measurement": "Grade", "setting": "[1]; 5.0% (wt/vol), 13 day", "value": 0}, {"measurement": "Grade", "setting": "[1]; 5.0% (wt/vol), 30 day", "value": 0}, {"measurement": "Grade", "setting": "[2]; 0.5% (wt/vol), 3 day", "value": "4 (1000 to 10,000 colonies countable (thus 10,000 CFU/mL to 100,000 CFU/mL))"}, {"measurement": "Grade", "setting": "[2]; 0.5% (wt/vol), 14 day", "value": "5 (More than 10,000 colonies estimated (thus more than 100,000 CFU/mL))"}, {"measurement": "Grade", "setting": "[2]; 0.5% (wt/vol), 30 day", "value": "5 (More than 10,000 colonies estimated (thus more than 100,000 CFU/mL))"}, {"measurement": "Grade", "setting": "[2]; 1.25% (wt/vol), 3 day", "value": "4 (1000 to 10,000 colonies countable (thus 10,000 CFU/mL to 100,000 CFU/mL))"}, {"measurement": "Grade", "setting": "[2]; 1.25% (wt/vol), 14 day", "value": "4 (1000 to 10,000 colonies countable (thus 10,000 CFU/mL to 100,000 CFU/mL))"}, {"measurement": "Grade", "setting": "[2]; 1.25% (wt/vol), 30 day", "value": "4 (1000 to 10,000 colonies countable (thus 10,000 CFU/mL to 100,000 CFU/mL))"}, {"measurement": "Grade", "setting": "[2]; 2.5% (wt/vol), 3 day", "value": "2 (52 to 100 colonies counted (thus 520 to 1000 CFU/mL))"}, {"measurement": "Grade", "setting": "[2]; 2.5% (wt/vol), 14 day", "value": "2 (52 to 100 colonies counted (thus 520 to 1000 CFU/mL))"}, {"measurement": "Grade", "setting": "[2]; 2.5% (wt/vol), 30 day", "value": "2 (52 to 100 colonies counted (thus 520 to 1000 CFU/mL))"}, {"measurement": "Grade", "setting": "[2]; 5.0% (wt/vol), 3 day", "value": "1 (0 to 51 colonies counted (thus 10 to 510 CFU/mL based on 0.1-mL sample))"}, {"measurement": "Grade", "setting": "[2]; 5.0% (wt/vol), 14 day", "value": 0}, {"measurement": "Grade", "setting": "[2]; 5.0% (wt/vol), 30 day", "value": 0}, {"measurement": "Grade", "setting": "[3]; 0.5% (wt/vol), 3 day", "value": "4 (1000 to 10,000 colonies countable (thus 10,000 CFU/mL to 100,000 CFU/mL))"}, {"measurement": "Grade", "setting": "[3]; 0.5% (wt/vol), 13 day", "value": "4 (1000 to 10,000 colonies countable (thus 10,000 CFU/mL to 100,000 CFU/mL))"}, {"measurement": "Grade", "setting": "[3]; 0.5% (wt/vol), 30 day", "value": "4 (1000 to 10,000 colonies countable (thus 10,000 CFU/mL to 100,000 CFU/mL))"}, {"measurement": "Grade", "setting": "[3]; 1.25% (wt/vol), 3 day", "value": "4 (1000 to 10,000 colonies countable (thus 10,000 CFU/mL to 100,000 CFU/mL))"}, {"measurement": "Grade", "setting": "[3]; 1.25% (wt/vol), 13 day", "value": "4 (1000 to 10,000 colonies countable (thus 10,000 CFU/mL to 100,000 CFU/mL))"}, {"measurement": "Grade", "setting": "[3]; 1.25% (wt/vol), 30 day", "value": "4 (1000 to 10,000 colonies countable (thus 10,000 CFU/mL to 100,000 CFU/mL))"}, {"measurement": "Grade", "setting": "[3]; 2.5% (wt/vol), 3 day", "value": "4 (1000 to 10,000 colonies countable (thus 10,000 CFU/mL to 100,000 CFU/mL))"}, {"measurement": "Grade", "setting": "[3]; 2.5% (wt/vol), 13 day", "value": "3 (100 to 1000 colonies (thus 1000 to 10,000 CFU/mL))"}, {"measurement": "Grade", "setting": "[3]; 2.5% (wt/vol), 30 day", "value": "4 (1000 to 10,000 colonies countable (thus 10,000 CFU/mL to 100,000 CFU/mL))"}, {"measurement": "Grade", "setting": "[3]; 5.0% (wt/vol), 3 day", "value": 0}, {"measurement": "Grade", "setting": "[3]; 5.0% (wt/vol), 13 day", "value": 0}, {"measurement": "Grade", "setting": "[3]; 5.0% (wt/vol), 30 day", "value": 0}, {"measurement": "S. mutans growth grade, 3 day", "setting": "[4]; 0.5% weight/volume", "value": "4 (1000 to 10,000 colonies countable (thus 10,000 CFU/mL to 100,000 CFU/mL))"}, {"measurement": "S. mutans growth grade, 13 day", "setting": "[4]; 0.5% weight/volume", "value": "4 (1000 to 10,000 colonies countable (thus 10,000 CFU/mL to 100,000 CFU/mL))"}, {"measurement": "S. mutans growth grade, 30 day", "setting": "[4]; 0.5% weight/volume", "value": "4 (1000 to 10,000 colonies countable (thus 10,000 CFU/mL to 100,000 CFU/mL))"}, {"measurement": "S. mutans growth grade, 3 day", "setting": "[4]; 1.25% weight/volume", "value": "2 (52 to 100 colonies counted (thus 520 to 1000 CFU/mL))"}, {"measurement": "S. mutans growth grade, 13 day", "setting": "[4]; 1.25% weight/volume", "value": "2 (52 to 100 colonies counted (thus 520 to 1000 CFU/mL))"}, {"measurement": "S. mutans growth grade, 30 day", "setting": "[4]; 1.25% weight/volume", "value": "2 (52 to 100 colonies counted (thus 520 to 1000 CFU/mL))"}, {"measurement": "S. mutans growth grade, 3 day", "setting": "[4]; 2.5% weight/volume", "value": 0}, {"measurement": "S. mutans growth grade, 13 day", "setting": "[4]; 2.5% weight/volume", "value": 0}, {"measurement": "S. mutans growth grade, 30 day", "setting": "[4]; 2.5% weight/volume", "value": 0}, {"measurement": "S. mutans growth grade, 3 day", "setting": "[4]; 5.0% weight/volume", "value": 0}, {"measurement": "S. mutans growth grade, 13 day", "setting": "[4]; 5.0% weight/volume", "value": 0}, {"measurement": "S. mutans growth grade, 30 day", "setting": "[4]; 5.0% weight/volume", "value": 0}, {"measurement": "B. subtillis growth grade, 3 day", "setting": "[5]; 0.5% weight/volume", "value": "4 (1000 to 10,000 colonies countable (thus 10,000 CFU/mL to 100,000 CFU/mL))"}, {"measurement": "B. subtillis growth grade, 14 day", "setting": "[5]; 0.5% weight/volume", "value": "4 (1000 to 10,000 colonies countable (thus 10,000 CFU/mL to 100,000 CFU/mL))"}, {"measurement": "B. subtillis growth grade, 30 day", "setting": "[5]; 0.5% weight/volume", "value": "4 (1000 to 10,000 colonies countable (thus 10,000 CFU/mL to 100,000 CFU/mL))"}, {"measurement": "B. subtillis growth grade, 3 day", "setting": "[5]; 1.25% weight/volume", "value": "2 (52 to 100 colonies counted (thus 520 to 1000 CFU/mL))"}, {"measurement": "B. subtillis growth grade, 14 day", "setting": "[5]; 1.25% weight/volume", "value": "2 (52 to 100 colonies counted (thus 520 to 1000 CFU/mL))"}, {"measurement": "B. subtillis growth grade, 30 day", "setting": "[5]; 1.25% weight/volume", "value": "2 (52 to 100 colonies counted (thus 520 to 1000 CFU/mL))"}, {"measurement": "B. subtillis growth grade, 3 day", "setting": "[5]; 2.5% weight/volume", "value": 0}, {"measurement": "B. subtillis growth grade, 14 day", "setting": "[5]; 2.5% weight/volume", "value": 0}, {"measurement": "B. subtillis growth grade, 30 day", "setting": "[5]; 2.5% weight/volume", "value": 0}, {"measurement": "B. subtillis growth grade, 3 day", "setting": "[5]; 5.0% weight/volume", "value": 0}, {"measurement": "B. subtillis growth grade, 14 day", "setting": "[5]; 5.0% weight/volume", "value": 0}, {"measurement": "B. subtillis growth grade, 30 day", "setting": "[5]; 5.0% weight/volume", "value": 0}]}
